Where a SMILES comes first, the peptide text is derived from it.

In this assay the target is soluble DQ8 proteins (HLA-DQ8, DQA1*0301/DQB1*0302) (Homo sapiens, UniProt P01909+P01920, A209T/A45G/C70Q/D89A/DUP78-78/E183D/E77G/F237L/G63E/H199R/I129T/K197E/L178F/L74F/L98V/Q57E/Q76R/S185I/S97I/T217I/T49S/V73L/Y58L). It counts as binding.
Broadly, the IC50 is the concentration that inhibits the measured activity by half. Lower therefore signals greater potency in that assay. `CC[C@H](C)[C@H](NC(=O)[C@H](C)N)C(=O)N[C@@H](CC(C)C)C(=O)N[C@H](C(=O)N[C@@H](CC(=O)O)C(=O)N[C@@H](C)C(=O)N[C@@H](C)C(=O)N[C@@H](Cc1c[nH]cn1)C(=O)N[C@@H](CC(C)C)C(=O)N[C@@H](CC(C)C)C(=O)N[C@H](C(=O)N[C@@H](CC(=O)O)C(=O)N[C@@H](CC(C)C)C(=O)N[C@H](C(=O)O)[C@@H](C)O)[C@@H](C)CC)[C@@H](C)O` [ZnT8 98–111] (H-AILTDAAHLLIDLT-OH) yielded an IC50 of 7.2 µM.

`CC[C@H](C)[C@H](NC(=O)[C@H](CCC(=O)O)NC(=O)[C@H](C)NC(=O)[C@H](CCCNC(=N)N)NC(=O)[C@H](Cc1ccc(O)cc1)NC(=O)[C@H](Cc1c[nH]c2ccccc12)NC(=O)CNC(=O)[C@H](Cc1ccccc1)NC(=O)[C@@H](NC(=O)[C@H](CC(C)C)NC(=O)[C@H](CCCNC(=N)N)NC(=O)[C@H](CCCCN)NC(=O)[C@@H](N)CO)[C@@H](C)O)C(=O)N[C@@H](CC(C)C)C(=O)O` [ZnT8 128–141] (H-SKRLTFGWYRAEIL-OH): half-maximal inhibition (IC50) required 20.2 µM.

`CC[C@H](C)[C@H](NC(=O)CNC(=O)[C@H](C)NC(=O)[C@H](CCC(N)=O)NC(=O)[C@@H](NC(=O)[C@H](CCC(N)=O)NC(=O)[C@H](Cc1ccc(O)cc1)NC(=O)[C@H](CC(=O)O)NC(=O)[C@@H]1CCCN1C(=O)[C@H](Cc1ccc(O)cc1)NC(=O)[C@@H](N)CC(C)C)[C@@H](C)CC)C(=O)N[C@@H](CCSC)C(=O)N[C@H](C(=O)N[C@H](C(=O)O)[C@@H](C)O)[C@@H](C)CC` [ZnT8 166–179] (H-LYPDYQIQAGIMIT-OH): the IC50 came out at 0.7 µM.

Regarding `CC[C@H](C)[C@H](NC(=O)[C@H](Cc1c[nH]cn1)NC(=O)[C@H](CC(C)C)NC(=O)[C@H](CO)NC(=O)[C@H](Cc1c[nH]cn1)NC(=O)[C@@H](NC(=O)[C@H](CO)NC(=O)[C@@H](NC(=O)[C@@H](NC(=O)CNC(=O)[C@H](CC(=O)O)NC(=O)[C@@H](NC(=O)[C@H](C)N)C(C)C)C(C)C)[C@@H](C)CC)C(C)C)C(=O)N[C@@H](Cc1c[nH]c2ccccc12)C(=O)O` [ZnT8 292–305] (H-AVDGVISVHSLHIW-OH), 18 µM corresponded to half-maximal inhibition (IC50).

Turning to `CC[C@H](C)[C@H](N)C(=O)N[C@@H](CC(C)C)C(=O)N[C@@H](CO)C(=O)N[C@H](C(=O)N[C@@H](Cc1c[nH]cn1)C(=O)N[C@H](C(=O)N[C@@H](C)C(=O)N[C@H](C(=O)N[C@@H](C)C(=O)N[C@@H](C)C(=O)N[C@@H](CO)C(=O)N[C@@H](CCC(N)=O)C(=O)N[C@@H](CC(=O)O)C(=O)N[C@@H](CO)C(=O)O)[C@@H](C)O)C(C)C)C(C)C` [ZnT8 313–326] (H-ILSVHVATAASQDS-OH), the IC50 worked out at 4.9 µM.

The molecule `CC[C@H](C)[C@H](NC(=O)CNC(=O)[C@@H](NC(=O)[C@@H](N)CCCNC(=N)N)[C@@H](C)O)C(=O)N[C@@H](C)C(=O)N[C@@H](CCC(N)=O)C(=O)N[C@@H](C)C(=O)N[C@@H](CC(C)C)C(=O)N[C@@H](CO)C(=O)N[C@@H](CO)C(=O)N[C@@H](Cc1ccccc1)C(=O)N[C@@H](CC(=O)O)C(=O)N[C@@H](CC(C)C)C(=O)N[C@@H](Cc1c[nH]cn1)C(=O)O` [ZnT8 330–343] (H-RTGIAQALSSFDLH-OH) showed an IC50 of 2.5 µM.

As for `CC[C@H](C)[C@H](NC(=O)[C@H](CCC(N)=O)NC(=O)[C@@H](NC(=O)[C@@H](NC(=O)[C@@H](N)CC(C)C)[C@@H](C)O)[C@@H](C)CC)C(=O)N[C@@H](CCC(=O)O)C(=O)N[C@@H](CO)C(=O)N[C@@H](C)C(=O)N[C@@H](C)C(=O)N[C@@H](CC(=O)O)C(=O)N[C@@H](CCC(N)=O)C(=O)N[C@@H](CC(=O)O)C(=O)N1CCC[C@H]1C(=O)N[C@@H](CO)C(=O)O` [ZnT8 345–358] (H-LTIQIESAADQDPS-OH), inhibition was half-maximal at 2.5 µM (IC50).

Values taken from article PMC2686615 (International Immunology, 2009).
